{"source": "patent US12139498B1", "about": "“Positive allosteric modulators of the muscarinic acetylcholine receptor M4” (Vanderbilt University, priority 2023, dated 2024)", "key": {"[1]": {"test_system": "male Sprague-Dawley rats", "experiment": "Amphetamine-induced hyperlocomotion in rats", "settings": "10 mg/kg p.o., amphetamine 0.25 mg/kg s.c., p<0.001"}, "[2]": {"biological_target": "T1, Human M4 (Homo sapiens, UniProt P08173)", "T1 sequence (P08173 1-479)": "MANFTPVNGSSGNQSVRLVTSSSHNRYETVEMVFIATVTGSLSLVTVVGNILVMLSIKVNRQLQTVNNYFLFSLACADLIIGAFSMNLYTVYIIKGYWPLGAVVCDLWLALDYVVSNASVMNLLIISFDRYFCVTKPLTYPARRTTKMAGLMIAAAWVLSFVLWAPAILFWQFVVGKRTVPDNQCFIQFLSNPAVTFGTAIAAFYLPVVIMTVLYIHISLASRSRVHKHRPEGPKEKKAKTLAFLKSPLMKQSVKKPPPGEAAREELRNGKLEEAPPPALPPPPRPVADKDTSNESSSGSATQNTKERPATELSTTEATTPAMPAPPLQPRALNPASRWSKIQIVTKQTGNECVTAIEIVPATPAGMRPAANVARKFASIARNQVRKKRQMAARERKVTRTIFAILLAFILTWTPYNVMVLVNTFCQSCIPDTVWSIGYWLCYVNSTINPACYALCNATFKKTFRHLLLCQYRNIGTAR", "experiment": "M4 cell-based functional assay (calcium mobilization)", "set-up": "expressed in transfected cells", "settings": "for Emax at 30 µM: % ACh maximum at 30 μM; for EC50: CHO-K1 hM4-Gqi5 cells, calcium flux, increase in EC20 acetylcholine response", "method_in_brief": "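CHO-K1 cells stably co-expressing hM4 and chimeric Gqi5, loaded with Fluo-4-AM (1.15 μM final, 45 min, 37° C). Compound added ~140 s before EC20 then EC80 acetylcholine; calcium flux by kinetic fluorescence (ex 480/em 530 nm), expressed as fold over basal and normalized to maximal ACh response (1 mM).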"}}}
{"smiles": "Cc1nnc2sc(C(=O)NCc3ccc(S(=O)(=O)C(F)(F)F)cc3)c(N)c2c1C", "note": "[VU0467154, reference compound]", "values": [{"measurement": "percent reversal of amphetamine-induced hyperlocomotion", "setting": "[1]", "result": 52.7, "unit": "%"}]}
{"smiles": "Cc1ccc2ncnc(N3CCc4nc(Br)sc4C3)c2c1", "note": "[Compound 30, 2-bromo-5-(6-methylquinazolin-4-yl)-4,5,6,7-tetrahydrothiazolo[5,4-c]pyridine]", "values": [{"measurement": "Emax at 30 µM", "setting": "[2]", "result": 91, "unit": "%"}, {"measurement": "EC50", "setting": "[2]", "result": 147, "unit": "nM"}]}
{"smiles": "Cc1cc2nccnc2nc1N1CCc2nc(Cl)sc2C1", "note": "[Compound 61, 2-chloro-5-(7-methylpyrido[2,3-b]pyrazin-6-yl)-4,5,6,7-tetrahydrothiazolo[5,4-c]pyridine]", "values": [{"measurement": "Emax at 30 µM", "setting": "[2]", "result": 68, "unit": "%"}, {"measurement": "EC50", "setting": "[2]", "result": 414, "unit": "nM"}]}
{"smiles": "Cc1cc(C#N)cnc1N1CCc2ncsc2C1", "note": "[Compound 17, 6-(6,7-dihydrothiazolo[5,4-c]pyridin-5(4H)-yl)-5-methylnicotinonitrile]", "values": [{"measurement": "Emax at 30 µM", "setting": "[2]", "result": 92, "unit": "%"}, {"measurement": "EC50", "setting": "[2]", "result": 3170, "unit": "nM"}]}
{"smiles": "Cc1cc2nc(C)c(C)c(=O)n2nc1N1CCc2nc(Br)sc2C1", "note": "[Compound 38, 7-(2-bromo-6,7-dihydrothiazolo[5,4-c]pyridin-5(4H)-yl)-2,3,8-trimethyl-4H-pyrimido[1,2-b]pyridazin-4-one]", "values": [{"measurement": "Emax at 30 µM", "setting": "[2]", "result": 80, "unit": "%"}, {"measurement": "EC50", "setting": "[2]", "result": 1180, "unit": "nM"}]}
{"smiles": "Cc1c(C#N)nnc(N2CCc3nc(Br)sc3C2)c1C", "note": "[Compound 10, 6-(2-bromo-6,7-dihydrothiazolo[5,4-c]pyridin-5(4H)-yl)-4,5-dimethylpyridazine-3-carbonitrile]", "values": [{"measurement": "Emax at 30 µM", "setting": "[2]", "result": 85, "unit": "%"}, {"measurement": "EC50", "setting": "[2]", "result": 114, "unit": "nM"}]}
{"smiles": "CCOC(=O)c1cc(=O)n2nc(N3CCc4nc(Br)sc4C3)c(C)cc2n1", "note": "[Compound 52, ethyl 7-(2-bromo-6,7-dihydrothiazolo[5,4-c]pyridin-5(4H)-yl)-8-methyl-4-oxo-4H-pyrimido[1,2-b]pyridazine-2-carboxylate]", "values": [{"measurement": "Emax at 30 µM", "setting": "[2]", "result": 92, "unit": "%"}, {"measurement": "EC50", "setting": "[2]", "result": 868, "unit": "nM"}]}
{"smiles": "Fc1ccc2ncnc(N3CCc4nc(Br)sc4C3)c2c1", "note": "[Compound 28, 2-bromo-5-(6-fluoroquinazolin-4-yl)-4,5,6,7-tetrahydrothiazolo[5,4-c]pyridine]", "values": [{"measurement": "Emax at 30 µM", "setting": "[2]", "result": 101, "unit": "%"}, {"measurement": "EC50", "setting": "[2]", "result": 45, "unit": "nM"}]}
